The text below walks through data of patent US20120244567A1, “HUMAN EMBRYONIC STEM CELLS FOR HIGH THROUGHOUT DRUG SCREENING” (BUCK INSTITUTE FOR RESEARCH ON AGING, priority 2009, published 2012).

Experiment [1] relates to hESCs and hESC-derived NSCs. Kind of experiment: Comparative ATP screening on hESCs and hESC-derived NSCs (ratio ESC/NSC or NSC/ESC). More on the design: hit class in primary screen / ESC/NSC: dose or concentration left out as unconfirmed. To be noted: for hit class in primary screen: NINDS primary screen, ATP relative to DMSO controls.
Excerpt: Hits were defined based on the ability of a compound to affect ATP levels relative to DMSO controls on each plate.
The next experiment concerns hESC-derived NSCs. Kind of experiment: ATP assay in hESC-derived NSCs (96-well, primary screen and retest). The format is cell-based, human. More on the design: cytotoxicity: dose or concentration left out as unconfirmed; toxicity to NSCs (reduced ATP concentrations) / ATP levels in NSC population: unit of the concentration uncertain. The following applies: for toxicity to NSCs (reduced ATP concentrations): 1 (unit uncertain), 2.5 (unit uncertain) and 10 (unit uncertain), treated NSCs versus untreated NSCs, untreated and treated hESCs. As for the experimental part:
EBs were then cultured for additional 2-3 days in suspension in neural induction media containing DMEM/F12 with Glutamax, 1×NEAA, 1×N2 and FGF2 (20 ng/ml) prior to attachment on cell culture plates. […] To obtain a pure population of NSCs, rosettes were manually isolated and dissociated into single cells using Accutase. The NSCs population was expanded in Neurobasal media containing 1×NEAA, 1×L-Glutamine (2 mM), 1×B27, LIF and FGF2 20 ng/ml.
Media was changed every day for hESCs and every other day for NSCs and additionally changed prior to drug treatment. The cells were treated with compounds from the NINDS library diluted in […] of either ESC or NSC media to a final concentration of 2.5 mM in 0.01% DMSO. […] For all sampling, ESC and NSC plates were processed in parallel for one drug or control condition at a time.
For ATP measurements, the media was removed, cells were washed 1× in milliQ water and reconstituted in […] ATP-Lite Mammalian Lysis Buffer and shaken for 5 minutes. Two […] aliquots of lysed cells were replated onto separate 96 well plates for later protein measurements.
To identify compounds that are toxic to hESCs, hESC-derived NSCs, or both, we screened 720 FDA-approved drugs of the NINDS collection by testing the toxicity of each drug at a dose of 2.5 mM. For endpoint measurement of cell death caused by drug toxicity, we used a widely accepted ATP assay that measures changes in ATP level as an indicator of cellular response to cell death. In this assay, total ATP content per well was measured and normalized to the total cellular protein.
Three concentrations of each compound (1 mM, 2.5 mM and 10 mM) were used in the retest.

The mark [2] stands for this setting: Prestwick screening data, group: Toxic To NSC (and not ESCs).
Setting [3] is: Prestwick screening data, group: Toxic To ESCs (and not NSCs).
[4] abbreviates: NINDS screening data, […], ATP assay, 48 hours.
Setting [5] is: Prestwick screening data, group: Toxic to both but (5x) more toxic to ESCs.
Setting [6] is: Homo sapiens, NINDS primary screen, 48 hours, read-out: NSC ATP values below the control mean.

Where a name gives a salt, the structure may show the parent alone. Read-outs that look alike come from different tables or passages of the source. Bounds are passed on as bounds.

With `CN(Cc1cnc2nc(N)nc(N)c2n1)c1ccc(C(=O)N[C@@H](CCC(=O)O)C(=O)O)cc1` (racemic) [Amethopterin (R,S)], the ESC/NSC in experiment [1] (setting [2]) is given as 6.45.
With `COc1ccc2c(c1OC)CN1CCc3cc4c(cc3C1C2)OCO4` (stereo not shown) [(D,L)-Tetrahydroberberine], the NSC/ESC in experiment [1] (setting [3]) was determined as 2.336.
Take `CC[N+]1(C)[C@@H]2CC[C@H]1CC(OC(=O)[C@@H]1CC[C@@](C(=O)OC3C[C@H]4CC[C@@H](C3)[N+]4(C)CC)(c3ccccc3)c3ccccc31)C2.[Cl-].[Cl-]` (stereo partly drawn) [Beta-Belladonnine Dichloroethylate]: the NSC/ESC in experiment [1] (setting [3]) was 2.717.
As for `CC(=O)Oc1ccc(C(c2ccc(OC(C)=O)cc2)c2ccccn2)cc1` [Bisacodyl], in experiment [1] (setting [2]), the ESC/NSC stood at 2.701.
`CNc1ccc2oc(C[C@H]3O[C@@]4(CC[C@H]3C)O[C@H]([C@H](C)C(=O)c3ccc[nH]3)[C@H](C)C[C@H]4C)nc2c1C(=O)O` [Calcimycin]: in experiment [1] (setting [4]), the ESC/NSC is recorded as 377.6.
Regarding `CC[C@@]1(O)C(=O)OCc2c1cc1n(c2=O)Cc2cc3ccccc3nc2-1` [Camptothecine (S,+)], in experiment [1] (setting [5]), the NSC/ESC is 14.46.
In the case of `C[C@@]12C(=O)OC(=O)[C@]1(C)[C@H]1CC[C@@H]2O1` [Cantharidin], in experiment [1] (Prestwick screening data, group: Toxic to both but (>5x) more toxic to NSCs), the ESC/NSC is 6.171.
On to `CCCCCCCCCCCCCCCC[N+](C)(C)C.[Br-]` [Cetrimonium Bromide], for which the ESC/NSC in experiment [1] (setting [4]) is on record as 5.402.
As for `CCCCCCCCCCCCCCCC[n+]1ccccc1` [Cetylpyridinium Chloride], the ESC/NSC in experiment [1] is on record as 109.4.
Consider `CN1Cc2c(ccc3c2OCO3)C2C(O)Cc3cc4c(cc3C21)OCO4` (stereo not drawn) [Chelidonine (+)], for which the ESC/NSC in experiment [1] (setting [2]) came out at 1.999.
Consider `CC(C)(C)CC(C)(C)c1ccc(O)c(Cc2ccc(Cl)cc2Cl)c1` [Clofoctol], for which the cytotoxicity in the experiment with hESC-derived NSCs (setting [6]) is ≥ 15%. For the same compound, the “toxicity to NSCs (reduced ATP concentrations)” value in the experiment with hESC-derived NSCs (retest) is “dose-dependent specific toxicity”. Also, the “hit class in primary screen” value in experiment [1] is “NSC Killers”.
On to `CCN(CC)C(=S)SSC(=S)N(CC)CC` [Disulfiram], for which, in experiment [1] (setting [3]), the NSC/ESC amounted to 10.3.
Turning to `COc1cccc2c1C(=O)c1c(O)c3c(c(O)c1C2=O)C[C@@](O)(C(=O)CO)C[C@@H]3O[C@H]1C[C@H](N)[C@H](O)[C@H](C)O1` [Doxorubicin Hydrochloride], the NSC/ESC in experiment [1] (setting [5]) was found to be 8.906.
For the compound `CC1(C)O[C@@H]2C[C@H]3[C@@H]4C[C@H](F)C5=CC(=O)CC[C@]5(C)[C@H]4[C@@H](O)C[C@]3(C)[C@]2(C(=O)CO)O1` [Flurandrenolide], in experiment [1] (setting [3]), the NSC/ESC was 2.308.
Still for that read-out and setting: the figure for `CCC(=O)O[C@]1(C(=O)SCF)[C@H](C)C[C@H]2[C@@H]3C[C@H](F)C4=CC(=O)C=C[C@]4(C)[C@@]3(F)[C@@H](O)C[C@@]21C` [Fluticasone Propionate] is 1.954; for `Fc1ccc(C(OCCN2CCN(CCCc3ccccc3)CC2)c2ccc(F)cc2)cc1` [Gbr 12909 Dihydrochloride] it is 1.754.
With `CCCCC(CC)CN1CN(CC(CC)CCCC)CC(C)(N)C1` (stereo not shown) [Hexetidine], the cytotoxicity with hESC-derived NSCs (setting [6]) is ≥ 15%. The “hit class in primary screen” value in experiment [1] is “NSC Killers”.
On to `CC[C@@H](C(=O)[C@@H](C)[C@@H](O)[C@H](C)CCc1ccc(C)c(O)c1C(=O)O)[C@H]1O[C@](CC)([C@H]2CC[C@](O)(CC)[C@H](C)O2)C[C@@H]1C` [Lasalocid Sodium Salt], for which, in experiment [1] (setting [2]), the ESC/NSC came to 2.052.
As to `CC1=CC(=O)c2ccccc2C1=O` [Menadione], the cytotoxicity in the experiment with hESC-derived NSCs (setting [6]) was ≥ 15%. The “toxicity to NSCs (reduced ATP concentrations)” value with hESC-derived NSCs (retest) was “dose-dependent specific toxicity”. Besides, the “hit class in primary screen” value in experiment [1] is “NSC Killers”.
Regarding `COC(=O)Nc1nc2ccc(SC(C)C)cc2[nH]1` [Methiazole], the ESC/NSC in experiment [1] (setting [2]) is listed as 3.01.
As to `Cl.Cl.c1ccc2c3c([nH]c2c1)C1C2CCC(C4CCCNC42)N1CC3` (stereo not shown) [Nitrarine Dihydrochloride], the NSC/ESC in experiment [1] (setting [3]) was found to be 1.949.
Take `CC(=O)O[C@H]1C(=O)[C@@]2(C)[C@H]([C@H](OC(=O)c3ccccc3)[C@]3(O)C[C@H](OC(=O)[C@H](O)[C@@H](NC(=O)c4ccccc4)c4ccccc4)C(C)=C1C3(C)C)[C@]1(OC(C)=O)CO[C@@H]1C[C@@H]2O` [Paclitaxel]: the NSC/ESC in experiment [1] (setting [5]) is on record as 5.325.
Consider `C1CCC(C(CC2CCCCN2)C2CCCCC2)CC1.O=C(O)/C=C\C(=O)O` (stereo not shown) [Perhexilline Maleate], for which, in experiment [1], the “hit class in primary screen” value was “NSC Killers”.
As for `COc1ccc(C[C@H](N)C(=O)N[C@H]2[C@@H](O)[C@H](n3cnc4c(N(C)C)ncnc43)O[C@@H]2CO)cc1` [Puromycin Dihydrochloride], in experiment [1] (setting [5]), the NSC/ESC was 10.84.
`COc1ccc(CN(CCN(C)C)c2ccccn2)cc1` [Pyrilamine Maleate]: the NSC/ESC in experiment [1] (setting [3]) is 1.934.
In the case of `CCc1nc(N)nc(N)c1-c1ccc(Cl)cc1` [Pyrimethamine], the ESC/NSC in experiment [1] (setting [2]) is on record as 2.009.
Take `[O-][n+]1ccccc1[S-].[O-][n+]1ccccc1[S-].[Zn+2]` [Pyrithione Zinc]: in experiment [1], the ESC/NSC is 116.4.
Regarding `C[n+]1cc2c3c(ccc2c2ccc4cc5c(cc4c21)OCO5)OCO3` [Sanguinarine Nitrate], the ESC/NSC in experiment [1] (setting [4]) is recorded as 8.446.
Turning to `C[n+]1cc2c3c(ccc2c2ccc4cc5c(cc4c21)OCO5)OCO3` [Sanguinarine], the ESC/NSC in experiment [1] (Prestwick screening data, […]) worked out at 102.6.
Regarding `CO[C@H]1C[C@H](O[C@@H]2/C(C)=C/C[C@@H]3C[C@@H](C[C@]4(CC[C@H](C)[C@@H](C5CCCCC5)O4)O3)OC(=O)[C@@H]3C=C(C)/C(=N/O)[C@H]4OC/C(=C\C=C\[C@@H]2C)[C@]43O)O[C@@H](C)[C@@H]1O` [Selamectin], the cytotoxicity at 2500 µM in the experiment with hESC-derived NSCs (Homo sapiens, NINDS primary screen, 2.5 mM, 48 hours, read-out: NSC ATP values below the control mean) is ≥ 15%. Also, in the experiment with hESC-derived NSCs (retest), the “toxicity to NSCs (reduced ATP concentrations)” value is “dose-dependent specific toxicity”. Also, the “effect on NSC survival among dose responsive compounds” value in the experiment with hESC-derived NSCs (retest, FIG. 2 panel B) was “most dramatic effect on NSC survival”. Further, the “hit class in primary screen” value in experiment [1] is “NSC Killers”.
As for `Cc1ccnc(NS(=O)(=O)c2ccc(N)cc2)n1` [Sulfamerazine], in experiment [1] (setting [3]), the NSC/ESC was determined as 2.003.
As to `C[C@H]1CC[C@]2(NC1)O[C@H]1C[C@H]3[C@@H]4CC[C@H]5C[C@@H](O[C@@H]6O[C@H](CO)[C@H](O[C@@H]7O[C@H](CO)[C@@H](O)[C@H](O[C@@H]8OC[C@@H](O)[C@H](O)[C@H]8O)[C@H]7O[C@@H]7O[C@H](CO)[C@@H](O)[C@H](O)[C@H]7O)[C@H](O)[C@H]6O)CC[C@]5(C)[C@H]4CC[C@]3(C)[C@H]1[C@@H]2C` [Tomatine], the ESC/NSC in experiment [1] (Prestwick screening data, […]) is recorded as 9.242.
`O=c1[nH]c(=O)n([C@H]2C[C@H](O)[C@@H](CO)O2)cc1C(F)(F)F` [Trifluridine]: the ESC/NSC in experiment [1] (setting [2]) was 2.955.
As to `COc1cc(-c2ccc(=O)[nH]n2)ccc1OC(F)F` [Zardaverine], the NSC/ESC in experiment [1] (setting [3]) was determined as 1.976.
As to `COC1=CC(=O)C[C@@H](C)[C@]12Oc1c(Cl)c(OC)cc(OC)c1C2=O` [griseofulvin], the cytotoxicity with hESC-derived NSCs (setting [6]) is ≥ 15%. For the same compound, in experiment [1], the “hit class in primary screen” value was “NSC Killers”.
As for `CN1CCN(CC(=O)N2c3ccccc3C(=O)Nc3cccnc32)CC1` [pirenzepine HCL], the cytotoxicity in the experiment with hESC-derived NSCs (setting [6]) was ≥ 15%. The “toxicity to NSCs (reduced ATP concentrations)” value in the experiment with hESC-derived NSCs (retest) is listed as “dose-dependent specific toxicity”. The “hit class in primary screen” value in experiment [1] is given as “NSC Killers”.
As for (−)-Levobunolol Hydrochloride, in experiment [1] (setting [3]), the NSC/ESC came to 1.689.
The same measure, in the same setting: with Clofilium Tosylate the figure was 2.184.
